Here are results for 6 molecules from patent US20060111305A1, “Metabolites of certain [1,4]diazepino[6,7,1-ij]quinoline derivatives and methods of preparation and use thereof” (Wyeth, priority 2004, published 2006).

Where two headings read alike, the source gives them in different places. Marks after values point to notes of the source that are not given here.

A short description of data set [1]: Rat plasma metabolite profiles after single oral 5 mg/kg [14C]DCDQ. It counts as in vivo, Sprague-Dawley rats. The note with it: for concentration at 2 h / concentration at 8 h / concentration at 4 h: Sprague-Dawley, rat, plasma, mean n = 3, read-out: Estimated plasma concentration in rats. As to the method:
Plasma samples were analyzed for metabolite profiles by HPLC. Aliquots of 1.5 mL plasma were mixed with 3.0 mL methanol, placed on ice for about 10 minutes, and then centrifuged. The supernatant was transferred to a clean tube. The protein pellets were extracted once with 3.0 mL methanol. The supernatants from precipitation and extraction of each sample were pooled, mixed, and evaporated at 22° C. under nitrogen in a Zymark TurboVap LV (Caliper Life Sciences, Hopkinton, Mass.) to about 0.3 mL. The concentrated extract was centrifuged, the supernatant volume measured and extraction efficiency was determined by analyzing duplicate 10 μL aliquots for radioactivity. An aliquot of the supernatant (50-200 μL) was analyzed by HPLC with radioactivity flow detection. Plasma extracts were also analyzed by LC/MS.
A Waters model 2690 HPLC system (Waters Corp., Milford, Mass.) with a built-in autosampler was used for analysis. Separations were accomplished on a Phenomenex Luna C18(2) column (150×2.0 mm, 5 μm) (Phenomenex, Torrance, Calif.). The sample chamber of the autosampler was maintained at 4° C., while the column was at ambient temperature of about 20° C. A variable wavelength UV detector set to monitor 250 nm and a Flo-One β Model A525 radioactivity detector described above were used for data acquisition. The HPLC mobile phase consisted of 10 mM ammonium acetate, pH 4.5 (A) and methanol (B), and was delivered at 0.2 mL/min. Chromatographic condition A was used for dose analysis, while condition B was used for analysis of urine and plasma, brain and fecal extracts.

The nature of data set [2]: Incubation of [14C]DCDQ with human liver microsomes (Km values, metabolite formation). It counts as in vitro ADME. As to conditions: for metabolite detected in microsomal incubation: human. As for the experimental part: (§1) [^14C]DCDQ was mixed with non-radiolabeled DCDQ (1:3 or 1:5) in the incubations. Microsomal incubations consisted of [^14C]DCDQ, magnesium chloride (10 mM) and liver microsomes incubated in 0.5 mL of 0.1 M potassium phosphate buffer, pH 7.4. [^14C]DCDQ (20 μL) in water was added to the incubation tubes containing buffer, magnesium chloride solution and microsomes. After mixing, the tubes were pre-incubated for 2 minutes in a shaking water bath at 37° C. The reactions were initiated by the addition of UDPGA or the NADPH regenerating system. UDPGA was added to incubations as a 50 μL aliquot of a 20 mM solution in water, to give a final concentration of 2 mM. An NADPH regenerating system (30 μL) was added to incubations to evaluate CYP450-mediated metabolism. The NADPH regenerating system consisted of glucose-6-phosphate (2 mg/mL), glucose-6-phosphate dehydrogenase (0.8 units/mL) and NADP^+ (2 mg/mL). Control incubations were conducted under the same conditions, but without the NADPH generating system, UDPGA or microsomes. All incubations were performed in duplicate. Incubations were stopped by the addition of 0.5 mL ice-cold methanol. Samples were vortex-mixed. Denatured proteins were separated by centrifugation at 4300 rpm and 4° C. for 10 minutes (Model T21 super centrifuge, Sorvall). The protein pellets were extracted with 0.5 mL of methanol. The supernatant was combined for each sample, mixed and evaporated to a volume of about 0.3 mL under a nitrogen stream in a Zymark TurboVap LV evaporator (Caliper Life Science, Hopkinton, Mass.). The concentrated sample was centrifuged and aliquots were radioassayed and analyzed by HPLC. This method recovered an average of 92.1% of the radioactivity from the reaction mixture.
(§2) Initial rate conditions were determined for DCDQ metabolism in incubations with human liver microsomes in the presence of NADPH or UDPGA. Incubations for the time course study contained 20 μM of [^14C]DCDQ and 0.5 mg/mL of microsomal proteins, and were incubated at 37° C. with mild shaking for 0, 5, 10, 20, 30, 40, 50 and 60 minutes. The protein dependence study was conducted with 20 μM of [^14C]DCDQ incubated for 20 minutes with 0, 0.1, 0.25, 0.5, 0.75 and 1.0 mg/mL of microsomal proteins.
(§3) The Km values were determined with 0.5 mg/mL of human liver microsomes incubated with [^14C]DCDQ for 20 minutes with the NADPH regenerating system or for 10 minutes with UDPGA. [^14C]DCDQ concentrations used were 0.5,1, 5, 10, 25, 50, 75 and 100 μM.
(§4) To evaluate species differences in cytochrome P450- and UGT-mediated metabolism, [^14C]DCDQ was incubated for 20 minutes with 0.5 mg/mL liver microsomal proteins from mice, rats, dogs or humans in the presence of the NADPH regenerating system or UDPGA. The assay conditions were the same as described above, and DCDQ concentrations were 12 μM and 56 μM for cytochrome P450- and UGT-mediated metabolism, respectively.
(§5) A Waters model 2690 HPLC system (Waters Corp., Milford, Mass.) with a built-in autosampler was used for analysis. Separations were accomplished on a Phenomenex Luna C18(2) column (2×150 mm, 5 μm) (Phenomenex, Torrance, Calif.) coupled with a filter (4×2 mm) cartridge. A variable wavelength UV detector set to monitor 250 nm and Flo-One β Model A525 radioactivity flow detector (Perkin Elmer) with a 250 μL LQTR flow cell were used for data acquisition. The flow rate of Ultima Flow M scintillation fluid was 1 mL/min, providing a mixing ratio of scintillation cocktail to mobile phase of 5:1. The sample chamber in the autosampler was maintained at 4° C., while the column was at ambient temperature of about 20° C. The mobile phase consisted of 10 mM ammonium acetate, pH 4.5 (A) and methanol (B) and was delivered at 0.2 mL/min. The linear gradient conditions were as follows: […]
(Liver microsomes are a subcellular fraction often used to study metabolism.)

Data set [3] concerns cytochrome P450 (NADPH-dependent metabolism). The description is as above. The data set is classed as in vitro ADME. As to conditions: pH 7.4; 0.5 mg/mL human liver microsomes, [14C]DCDQ 0.5-100 μM, NADPH regenerating system, 20 min. As for the experimental part: as §1, §2, §3, §4, §5
Data set [4] is described as follows: Incubation of [14C]DCDQ with rat liver microsomes. The data set is classed as in vitro ADME, Sprague Dawley rats. As to the method: as §1, §4
A Waters model 2690 HPLC system (Waters Corp., Milford, Mass.) with a built-in autosampler was used for analysis. Separations were accomplished on a Phenomenex Luna C18(2) column (2×150 mm, 5 μm) (Phenomenex, Torrance, Calif.) coupled with a filter (4×2 mm) cartridge. A variable wavelength UV detector set to monitor 250 nm and Flo-One β Model A525 radioactivity flow detector (Perkin Elmer) with a 250 μL LQTR flow cell were used for data acquisition. The flow rate of Ultima Flow M scintillation fluid was 1 mL/min, providing a mixing ratio of scintillation cocktail to mobile phase of 5:1. […]

Where [5] appears, read: NADPH regenerating system, 12 μM DCDQ, 20 min.

As for `c1cc2c3c(c1)[C@H]1CCC[C@H]1CN3CCNC2` [DCDQ, (9aR,12aS)-4,5,6,7,9,9a,10,11,12,12a-decahydro-cyclopenta[c][1,4]diazepine[6,7,1-ij]quinoline, reference compound], the concentration at 2 h in data set [1] (female, 2 hr) was 132 ng/mL; in data set [1] (male, 2 hr), 86.9 ng/mL. The concentration at 8 h in data set [1] (female, 8 hr) is 49.4 ng/mL; in data set [1] (male, 8 hr), 58.7 ng/mL. In data set [1] (male, 4 hr), the concentration at 4 h is 90.8 ng/mL. The “Chromatographic distribution of radioactivity in rat plasma” value (“Chromatographic distribution” for short) in data set [1] (female, 2 hr, mean n = 3) is 20%; in data set [1] (female, 8 hr, mean n = 3), 15%; in data set [1] (male, 2 hr, mean n = 3), 14%; in data set [1] (male, 4 hr, mean n = 3), 14%; in data set [1] (male, 8 hr, mean n = 3) it was 13%.
In the case of `OC1CN2C[C@@H]3CCC[C@@H]3c3cccc(c32)CN1` (stereo partly shown) [Metabolite M1, hydroxy DCDQ], the “metabolite detected in microsomal incubation” value in data set [2] (setting [5]) is on record as “detected”; in data set [4] (setting [5]) it was “not detected”. The Michaelis-Menten constant (Km) at 20 min in data set [3] was 10.8 µM. The concentration at 2 h in data set [1] (female, 2 hr) was 12.6 ng/mL; in data set [1] (male, 2 hr) it was 88.4 ng/mL. Also, the concentration at 8 h in data set [1] (female, 8 hr) is 6.52 ng/mL; in data set [1] (male, 8 hr) it was 41.9 ng/mL. Moreover, the concentration at 4 h in data set [1] (male, 4 hr) was 59.7 ng/mL. For the same molecule, the “Chromatographic distribution” value in data set [1] (female, 2 hr, mean n = 3) is reported as 2.0^d %; in data set [1] (female, 8 hr, mean n = 3) it was 1.9^d %; in data set [1] (male, 2 hr, mean n = 3) it was 14%; in data set [1] (male, 4 hr, mean n = 3) it was 9.1%; in data set [1] (male, 8 hr, mean n = 3) it was 8.9%.
On to `OC1[C@@H]2CCC[C@@H]2c2cccc3c2N1CCNC3` (stereo partly shown) [Metabolite M2, hydroxy DCDQ], for which the results for the “metabolite detected in microsomal incubation” value in data set [2] (setting [5]) and in data set [4] (setting [5]) were “detected” and “observed”, respectively. For the same molecule, the Km at 20 min in data set [3] was in the range of 8.9 to 13.8 µM. Besides, the concentration at 8 h in data set [1] (female, 8 hr) is 4.4 ng/mL; in data set [1] (male, 8 hr), 20 ng/mL. Moreover, the concentration at 2 h in data set [1] (male, 2 hr) was 32.3 ng/mL. Further, the concentration at 4 h in data set [1] (male, 4 hr) was 22.6 ng/mL. For the same molecule, the “Chromatographic distribution” value was “BQL” in data set [1] (female, 2 hr, mean n = 3); 1.5^e % in data set [1] (female, 8 hr, mean n = 3); 5.2% in data set [1] (male, 2 hr, mean n = 3); 3.4% in data set [1] (male, 4 hr, mean n = 3); 4.3% in data set [1] (male, 8 hr, mean n = 3). Also, the “Estimated plasma concentration in rats” value in data set [1] (female, 2 hr, mean n = 3) is recorded as “BQL”.
For the molecule `[O-][N+]12CCN=Cc3cccc(c31)[C@H]1CCC[C@H]1C2` (stereo partly shown) [Metabolite M5, DCDQ imine N-oxide], the “metabolite detected in microsomal incubation” value is “detected” in data set [2] (setting [5]) and “not mouse or rat” in data set [4] (setting [5]). In addition, the Km at 20 min in data set [3] was determined as 36.2 µM.
Take `O=C(O)[C@H]1O[C@@H](OC(=O)N2CCN3C[C@@H]4CCC[C@@H]4c4cccc(c43)C2)[C@H](O)[C@@H](O)[C@@H]1O` [Metabolite M6, carbamoyl glucuronide of DCDQ]: the “amount of metabolite detected” value in data set [2] (human liver microsomes, DCDQ 20 μM, both NADPH and UDPGA) is listed as “only minor amounts”. The “metabolite detected in microsomal incubation” value in data set [2] (UDPGA, 56 μM DCDQ) was “detected”; in data set [4] (UDPGA, 56 μM DCDQ) it was “not mouse or rat”.
As to `O=C1CC[C@@H]2c3cccc4c3N(CCNC4)C[C@H]12` [Metabolite M7, 17-keto DCDQ], the concentration at 2 h in data set [1] (female, 2 hr) was 35.6 ng/mL; in data set [1] (male, 2 hr) it was 63.6 ng/mL. Moreover, the concentration at 8 h in data set [1] (female, 8 hr) is 17.5 ng/mL; in data set [1] (male, 8 hr) it was 53 ng/mL. In data set [1] (male, 4 hr), the concentration at 4 h is 62.1 ng/mL. The “Chromatographic distribution” value in data set [1] (female, 2 hr, mean n = 3) is on record as 5.4^d %; in data set [1] (female, 8 hr, mean n = 3) it was 5.6%; in data set [1] (male, 2 hr, mean n = 3) it was 10%; in data set [1] (male, 4 hr, mean n = 3), 9.4%; in data set [1] (male, 8 hr, mean n = 3), 12%.

Broadly, the Km is the concentration of substrate that gives half-maximal velocity.
